Data taken from the supplement of paper PMC11061612.

Assays:
Capivasertib = compound: C1CN(CCC1(C(=O)N[C@@H](CCO)C2=CC=C(C=C2)Cl)N)C3=NC=NC4=C3C=CN4 [Capivasertib]; conditions: max 10 µM
How it was run: (§1)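 Cancer cell lines were plated in 1536-well plates in 7.5 μl of DMEM/F12 or RPMI with 10% FBS and kept 24 hours at 37°C and 5% CO2 before 72 hours of dosing, with final DMSO typically 0.2%. CellTiter-Glo 2.0 luminescence measured viability, scaled between blank-well and DMSO-well means. Dose responses were fitted to a two-parameter logistic curve with a non-linear mixed effects model. This fit gives the single-agent IC50.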

AZD1775 = compound: C=CCn1c(=O)c2cnc(Nc3ccc(N4CCN(C)CC4)cc3)nc2n1-c1cccc(C(C)(C)O)n1 [AZD1775]; conditions: max 3 µM
How it was run: as §1

Trametinib = compound: CC(=O)Nc1cccc(-n2c(=O)n(C3CC3)c(=O)c3c(Nc4ccc(I)cc4F)n(C)c(=O)c(C)c32)c1 [Trametinib]; conditions: max 1 µM
How it was run: as §1

Palbociclib = compound: CC(=O)c1c(C)c2cnc(Nc3ccc(N4CCNCC4)cn3)nc2n(C2CCCC2)c1=O [Palbociclib]; conditions: max 10 µM
How it was run: as §1

AZD1390 = compound: CC(C)n1c(=O)n(C)c2cnc3cc(F)c(-c4ccc(OCCCN5CCCCC5)nc4)cc3c21 [AZD1390]; conditions: max 0.3 µM
How it was run: as §1

Venetoclax = compound: CC1(C)CCC(CN2CCN(c3ccc(C(=O)NS(=O)(=O)c4ccc(NCC5CCOCC5)c([N+](=O)[O-])c4)c(Oc4cnc5[nH]ccc5c4)c3)CC2)=C(c2ccc(Cl)cc2)C1 [Venetoclax]; conditions: max 1 µM
How it was run: as §1

Dasatinib = compound: CC1=C(C(=CC=C1)Cl)NC(=O)C2=CN=C(S2)NC3=CC(=NC(=N3)C)N4CCN(CC4)CCO [Dasatinib]; conditions: max 2 µM
How it was run: as §1

SG3199 = compound: CC1=CN2[C@@H](C1)C=NC3=CC(=C(C=C3C2=O)OC)OCCCCCOC4=C(C=C5C(=C4)N=C[C@@H]6CC(=CN6C5=O)C)OC [SG3199]; conditions: max 0.001 µM
How it was run: as §1

AZD2811 = compound: CCN(CCO)CCCOc1ccc2c(Nc3cc(CC(=O)Nc4cccc(F)c4)[nH]n3)ncnc2c1 [AZD2811]; conditions: max 1 µM
How it was run: as §1

SN-38 = compound: CCc1c2c(nc3ccc(O)cc13)-c1cc3c(c(=O)n1C2)COC(=O)[C@]3(O)CC [SN-38]; conditions: max 0.3 µM
How it was run: as §1

AZD0156 = compound: CN(C)CCCOc1ccc(-c2ccc3ncc4c(c3c2)n(C2CCOCC2)c(=O)n4C)cn1 [AZD0156]; conditions: max 3 µM
How it was run: as §1

AZD4320 = compound: CN(CC[C@H](CSC1=CC=CC=C1)NC2=C(C=C(C=C2)S(=O)(=O)NC(=O)C3=CC=C(C=C3)N4CCC(CC4)[C@H](C5=CC=CC=C5C6=CC=C(C=C6)Cl)O)S(=O)(=O)C(F)(F)F)CCO [AZD4320]; conditions: max 1 µM
How it was run: as §1

Alisertib = compound: COc1cc(Nc2ncc3c(n2)-c2ccc(Cl)cc2C(c2c(F)cccc2OC)=NC3)ccc1C(=O)O [Alisertib]; conditions: max 10 µM
How it was run: as §1

Gefitinib = compound: COc1cc2ncnc(Nc3ccc(F)c(Cl)c3)c2cc1OCCCN1CCOCC1 [Gefitinib]; conditions: max 10 µM
How it was run: as §1

Prexasertib = compound: COc1cccc(OCCCN)c1-c1cc(Nc2cnc(C#N)cn2)n[nH]1 [Prexasertib]; conditions: max 1 µM
How it was run: as §1

Doxorubicin = compound: COc1cccc2c1C(=O)c1c(O)c3c(c(O)c1C2=O)C[C@@](O)(C(=O)CO)C[C@@H]3O[C@H]1C[C@H](N)[C@H](O)[C@H](C)O1 [Doxorubicin]; conditions: max 1 µM
How it was run: as §1

AZD5153 = compound: COc1nnc2ccc(N3CCC(c4ccc(OCCN5CCN(C)C(=O)[C@H]5C)cc4)CC3)nn12 [AZD5153]; conditions: max 1 µM
How it was run: as §1

Lapatinib = compound: CS(=O)(=O)CCNCc1ccc(-c2ccc3ncnc(Nc4ccc(OCc5cccc(F)c5)c(Cl)c4)c3c2)o1 [Lapatinib]; conditions: max 10 µM
How it was run: as §1

AZD8186 = compound: C[C@@H](Nc1cc(F)cc(F)c1)c1cc(C(=O)N(C)C)cc2c(=O)cc(N3CCOCC3)oc12 [AZD8186]; conditions: max 3 µM
How it was run: as §1

Crizotinib = compound: C[C@@H](Oc1cc(-c2cnn(C3CCNCC3)c2)cnc1N)c1c(Cl)ccc(F)c1Cl [Crizotinib]; conditions: max 10 µM
How it was run: as §1

Savolitinib = compound: C[C@@H](c1ccc2nccn2c1)n1nnc2ncc(-c3cnn(C)c3)nc21 [Savolitinib]; conditions: max 1 µM
How it was run: as §1

AZD6738 = compound: C[C@@H]1COCCN1C2=NC(=NC(=C2)C3(CC3)[S@](=N)(=O)C)C4=C5C=CNC5=NC=C4 [AZD6738]; conditions: max 10 µM
How it was run: as §1

AZD5991 = compound: Cc1c2c(nn1C)CSCc1cc(n(C)n1)CSc1cc(c3ccccc3c1)OCCCc1c(C(=O)O)n(C)c3c-2c(Cl)ccc13 [AZD5991]; conditions: max 1 µM
How it was run: as §1

AZD7648 = compound: Cc1cc2ncnn2cc1Nc1ncc2c(n1)n(C1CCOCC1)c(=O)n2C [AZD7648]; conditions: max 10 µM
How it was run: as §1

Taselisib = compound: Cc1nc(-c2cn3c(n2)-c2ccc(-c4cnn(C(C)(C)C(N)=O)c4)cc2OCC3)n(C(C)C)n1 [Taselisib]; conditions: max 10 µM
How it was run: as §1

Selumetinib = compound: Cn1cnc2c(F)c(Nc3ccc(Br)cc3Cl)c(C(=O)NOCCO)cc21 [Selumetinib]; conditions: max 10 µM
How it was run: as §1

Olaparib = compound: O=C(c1cc(Cc2n[nH]c(=O)c3ccccc23)ccc1F)N1CCN(C(=O)C2CC2)CC1 [Olaparib]; conditions: max 10 µM
How it was run: as §1

MK-2206 = compound: NC1(c2ccc(-c3nc4ccn5c(=O)[nH]nc5c4cc3-c3ccccc3)cc2)CCC1 [MK-2206]; conditions: max 10 µM
How it was run: as §1

| Cell Line | IC50, cell viability 72 h (Capivasertib) | IC50, cell viability 72 h (AZD1775) | IC50, cell viability 72 h (Trametinib) | IC50, cell viability 72 h (Palbociclib) | IC50, cell viability 72 h (AZD1390) | IC50, cell viability 72 h (Venetoclax) | IC50, cell viability 72 h (Dasatinib) | IC50, cell viability 72 h (SG3199) | IC50, cell viability 72 h (AZD2811) | IC50, cell viability 72 h (SN-38) | IC50, cell viability 72 h (AZD0156) | IC50, cell viability 72 h (AZD4320) | IC50, cell viability 72 h (Alisertib) | IC50, cell viability 72 h (Gefitinib) | IC50, cell viability 72 h (Prexasertib) | IC50, cell viability 72 h (Doxorubicin) | IC50, cell viability 72 h (AZD5153) | IC50, cell viability 72 h (Lapatinib) | IC50, cell viability 72 h (AZD8186) | IC50, cell viability 72 h (Crizotinib) | IC50, cell viability 72 h (Savolitinib) | IC50, cell viability 72 h (AZD6738) | IC50, cell viability 72 h (AZD5991) | IC50, cell viability 72 h (AZD7648) | IC50, cell viability 72 h (Taselisib) | IC50, cell viability 72 h (Selumetinib) | IC50, cell viability 72 h (Olaparib) | IC50, cell viability 72 h (MK-2206) |
| --- | --- | --- | --- | --- | --- | --- | --- | --- | --- | --- | --- | --- | --- | --- | --- | --- | --- | --- | --- | --- | --- | --- | --- | --- | --- | --- | --- | --- |
| NCI-H209 (Small Cell Lung Carcinoma) | > 10000 nM | 373 nM | > 1000 nM | > 10000 nM | > 300 nM | 978 nM | > 2000 nM | > 1 nM | 800 nM | 0.637 nM | > 3000 nM | 18.4 nM | 7740 nM | > 10000 nM | 18.1 nM | 281 nM | > 1000 nM | > 10000 nM | > 3000 nM | > 10000 nM | > 1000 nM | 2110 nM | > 1000 nM | > 10000 nM | > 10000 nM | > 10000 nM | 1030 nM | – |
| NCI-H1568 (Lung Adenocarcinoma) | > 10000 nM | 1760 nM | > 1000 nM | > 10000 nM | > 300 nM | > 1000 nM | > 2000 nM | > 1 nM | > 1000 nM | 297 nM | > 3000 nM | > 1000 nM | > 10000 nM | > 10000 nM | 424 nM | > 1000 nM | > 1000 nM | > 10000 nM | > 3000 nM | > 10000 nM | > 1000 nM | > 10000 nM | > 1000 nM | > 10000 nM | > 10000 nM | > 10000 nM | > 10000 nM | – |
| NCI-H2052 (Mesothelioma) | > 10000 nM | > 3000 nM | > 1000 nM | > 10000 nM | > 300 nM | > 1000 nM | 1510 nM | > 1 nM | > 1000 nM | 38.5 nM | > 3000 nM | > 1000 nM | > 10000 nM | > 10000 nM | 574 nM | > 1000 nM | > 1000 nM | > 10000 nM | > 3000 nM | > 10000 nM | > 1000 nM | > 10000 nM | > 1000 nM | > 10000 nM | 3670 nM | > 10000 nM | > 10000 nM | > 10000 nM |
